Source: patent publication US20260115161A1, “2-HYDROXY-OCTADECENE-9-CIS-OATE FOR USE IN THE TREATMENT OF ONCOLOGICAL PATHOLOGIES AND NEUROPATHIC PAIN” (Laminar Pharmaceuticals S.A., priority 2023, published 2026)

Assays:
NCI-H2021 Mesothelioma = experiment: Cell line assay, HOCOS combinations, NCI-H2021; type: cell-based, human; details: NCI-H2021, compound alone
Method: (§1) To study the possible use of HOCOS in combinatorial therapies, human glioblastoma cells of lines U118, SNB19, SF268, human mesothelioma cells NCI-H2021 and pancreatic cancer cells BxPC-3 (pancreatic adenocarcinoma) and MIAPaCa-2 ([…]) were cultured in the absence or presence of different chemotherapeutic agents and combinations of HOCOS with said compounds.

A549 Lung = experiment: Cell line assay, HOCOS combinations, A549; type: cell-based; details: Homo sapiens; A549, compound alone
BxPC-3 Pancreas = experiment: Cell line assay, HOCOS combinations, BxPC-3; type: cell-based; details: Homo sapiens; BxPC-3, compound alone
Method: as §1

U118 Glioblastoma = experiment: Cell line assay, HOCOS combinations, U118; type: cell-based; details: Homo sapiens; U118, compound alone
Method: as §1

SNB19 Glioblastoma = experiment: cells; details: Homo sapiens, SNB-19
Method: as §1

[1] = test system: neuropathic pain due to spinal cord injury; details: Cardenas et al., cited from earlier work

With `N.N.[Cl][Pt][Cl]` [Cisplatin] the IC50 (NCI-H2021 Mesothelioma) was 16.4 µM.

Work on `C#Cc1cccc(Nc2ncnc3cc(OCCOC)c(OCCOC)cc23)c1` [Erlotinib] yielded an IC50 (A549 Lung) of 16 µM.

`Nc1ccn([C@@H]2O[C@H](CO)[C@@H](O)C2(F)F)c(=O)n1` [Gemcitabine] gave an IC50 (BxPC-3 Pancreas) of 0.0078 µM.

With `CCc1c2c(nc3ccc(OC(=O)N4CCC(N5CCCCC5)CC4)cc13)-c1cc3c(c(=O)n1C2)COC(=O)[C@]3(O)CC` [Irinotecan] the IC50 (U118 Glioblastoma) was 15 µM.

`Cc1ncc(C[n+]2csc(CCO)c2C)c(N)n1` [Thiamine] showed an IC50 (SNB19 Glioblastoma) of 15400 µM.

For `CC(C)C[C@H](CN)CC(=O)O` [pregabalin], the “percentage of patients responding, pregabalin group” value ([1]; 33% in the placebo group) is listed as 48%, the “mean reduction of neuropathic pain” value [1] is listed as 1.2 points on the VAS scale and the “patients responding to treatment” value [1] is listed as “approximately 50%”. The “difference between pregabalin and placebo groups” value ([1]; VAS scale) was 0.82 points.
